# Measured values from ChEMBL document CHEMBL3797052 (Eur J Med Chem, 2016).
# System: CCRF-CEM
# Test: Antiproliferative activity against human CCRF-CEM cells assessed as cell growth at 10^-5 M after 48 hrs by sulforhodamine B assay
# Type: functional
# Conditions: read-out: Activity
row,Structure (SMILES),growth at 10 µM
1,CNC(=O)c1cc(Oc2ccc3nc(NC(=O)Nc4ccc(Cl)cc4)sc3c2)ccn1,83.2%
2,CNC(=O)c1cc(Oc2ccc3nc(NC(=O)Nc4ccc(F)cc4F)sc3c2)ccn1,89.7%

# System: not listed separately
# Test: Antiproliferative activity against human MOLT4 cells assessed as cell growth at 10^-5 M after 48 hrs by sulforhodamine B assay
# Type: functional
# Conditions: MOLT-4, 48 h, read-out: Activity
row,Structure (SMILES),growth at 10 µM
1,CNC(=O)c1cc(Oc2ccc3nc(NC(=O)Nc4ccc(Cl)cc4)sc3c2)ccn1,85.4%
2,CNC(=O)c1cc(Oc2ccc3nc(NC(=O)Nc4ccc(F)cc4F)sc3c2)ccn1,82.4%

# System: SR
# Test: Antiproliferative activity against human SR cells assessed as cell growth at 10^-5 M after 48 hrs by sulforhodamine B assay
# Type: functional
# Conditions: read-out: Activity
row,Structure (SMILES),growth at 10 µM
1,CNC(=O)c1cc(Oc2ccc3nc(NC(=O)Nc4ccc(Cl)cc4)sc3c2)ccn1,42.7%
2,CNC(=O)c1cc(Oc2ccc3nc(NC(=O)Nc4ccc(F)cc4F)sc3c2)ccn1,80.4%

# System: A549
# Test: Antiproliferative activity against human A549/ATCC cells assessed as cell growth at 10^-5 M after 48 hrs by sulforhodamine B assay
# Type: functional
# Conditions: A549, 48 h, read-out: Activity
row,Structure (SMILES),growth at 10 µM
1,CNC(=O)c1cc(Oc2ccc3nc(NC(=O)Nc4ccc(Cl)cc4)sc3c2)ccn1,44.1%
2,CNC(=O)c1cc(Oc2ccc3nc(NC(=O)Nc4ccc(F)cc4F)sc3c2)ccn1,44.8%

# System: EKVX
# Test: Antiproliferative activity against human EKVX cells assessed as cell growth at 10^-5 M after 48 hrs by sulforhodamine B assay
# Type: functional
# Conditions: read-out: Activity
row,Structure (SMILES),growth at 10 µM
1,CNC(=O)c1cc(Oc2ccc3nc(NC(=O)Nc4ccc(Cl)cc4)sc3c2)ccn1,53.8%
2,CNC(=O)c1cc(Oc2ccc3nc(NC(=O)Nc4ccc(F)cc4F)sc3c2)ccn1,89.8%

# System: NCI-H226
# Test: Antiproliferative activity against human NCI-H226 cells assessed as cell growth at 10^-5 M after 48 hrs by sulforhodamine B assay
# Type: functional
# Conditions: NCI-H226, 48 h, read-out: Activity
row,Structure (SMILES),growth at 10 µM
1,CNC(=O)c1cc(Oc2ccc3nc(NC(=O)Nc4ccc(Cl)cc4)sc3c2)ccn1,67.9%
2,CNC(=O)c1cc(Oc2ccc3nc(NC(=O)Nc4ccc(F)cc4F)sc3c2)ccn1,52.8%

# System: NCI-H23
# Test: Antiproliferative activity against human NCI-H23 cells assessed as cell growth at 10^-5 M after 48 hrs by sulforhodamine B assay
# Type: functional
# Conditions: NCI-H23, 48 h, read-out: Activity
row,Structure (SMILES),growth at 10 µM
1,CNC(=O)c1cc(Oc2ccc3nc(NC(=O)Nc4ccc(Cl)cc4)sc3c2)ccn1,69%
2,CNC(=O)c1cc(Oc2ccc3nc(NC(=O)Nc4ccc(F)cc4F)sc3c2)ccn1,47%

# System: NCI-H460
# Test: Antiproliferative activity against human NCI-H460 cells assessed as cell growth at 10^-5 M after 48 hrs by sulforhodamine B assay
# Type: functional
# Conditions: NCI-H460, 48 h, read-out: Activity
row,Structure (SMILES),growth at 10 µM
1,CNC(=O)c1cc(Oc2ccc3nc(NC(=O)Nc4ccc(Cl)cc4)sc3c2)ccn1,64.3%
2,CNC(=O)c1cc(Oc2ccc3nc(NC(=O)Nc4ccc(F)cc4F)sc3c2)ccn1,63%

# System: not listed separately
# Test: Antiproliferative activity against human SF295 cells assessed as cell growth at 10^-5 M after 48 hrs by sulforhodamine B assay
# Type: functional
# Conditions: SF-295, 48 h, read-out: Activity
row,Structure (SMILES),growth at 10 µM
1,CNC(=O)c1cc(Oc2ccc3nc(NC(=O)Nc4ccc(Cl)cc4)sc3c2)ccn1,66.3%
2,CNC(=O)c1cc(Oc2ccc3nc(NC(=O)Nc4ccc(F)cc4F)sc3c2)ccn1,76.7%

# System: not listed separately
# Test: Antiproliferative activity against human SNB75 cells assessed as cell growth at 10^-5 M after 48 hrs by sulforhodamine B assay
# Type: functional
# Conditions: SNB-75, 48 h, read-out: Activity
row,Structure (SMILES),growth at 10 µM
1,CNC(=O)c1cc(Oc2ccc3nc(NC(=O)Nc4ccc(Cl)cc4)sc3c2)ccn1,50.6%
2,CNC(=O)c1cc(Oc2ccc3nc(NC(=O)Nc4ccc(F)cc4F)sc3c2)ccn1,19.2%

# System: U-251
# Test: Antiproliferative activity against human U251 cells assessed as cell growth at 10^-5 M after 48 hrs by sulforhodamine B assay
# Type: functional
# Conditions: U-251, 48 h, read-out: Activity
row,Structure (SMILES),growth at 10 µM
1,CNC(=O)c1cc(Oc2ccc3nc(NC(=O)Nc4ccc(Cl)cc4)sc3c2)ccn1,37.3%
2,CNC(=O)c1cc(Oc2ccc3nc(NC(=O)Nc4ccc(F)cc4F)sc3c2)ccn1,37%

# System: M14
# Test: Antiproliferative activity against human M14 cells assessed as cell growth at 10^-5 M after 48 hrs by sulforhodamine B assay
# Type: functional
# Conditions: M14, 48 h, read-out: Activity
row,Structure (SMILES),growth at 10 µM
1,CNC(=O)c1cc(Oc2ccc3nc(NC(=O)Nc4ccc(Cl)cc4)sc3c2)ccn1,63%
2,CNC(=O)c1cc(Oc2ccc3nc(NC(=O)Nc4ccc(F)cc4F)sc3c2)ccn1,69.1%

# System: SK-MEL-5
# Test: Antiproliferative activity against human SK-MEL-5 cells assessed as cell growth at 10^-5 M after 48 hrs by sulforhodamine B assay
# Type: functional
# Conditions: SK-MEL-5, 48 h, read-out: Activity
row,Structure (SMILES),growth at 10 µM
1,CNC(=O)c1cc(Oc2ccc3nc(NC(=O)Nc4ccc(Cl)cc4)sc3c2)ccn1,73.3%
2,CNC(=O)c1cc(Oc2ccc3nc(NC(=O)Nc4ccc(F)cc4F)sc3c2)ccn1,39%

# System: not listed separately
# Test: Antiproliferative activity against human UACC257 cells assessed as cell growth at 10^-5 M after 48 hrs by sulforhodamine B assay
# Type: functional
# Conditions: UACC-257, 48 h, read-out: Activity
row,Structure (SMILES),growth at 10 µM
1,CNC(=O)c1cc(Oc2ccc3nc(NC(=O)Nc4ccc(F)cc4F)sc3c2)ccn1,74.3%

# System: not listed separately
# Test: Antiproliferative activity against human IGROV1 cells assessed as cell growth at 10^-5 M after 48 hrs by sulforhodamine B assay
# Type: functional
# Conditions: IGROV-1, 48 h, read-out: Activity
row,Structure (SMILES),growth at 10 µM
1,CNC(=O)c1cc(Oc2ccc3nc(NC(=O)Nc4ccc(Cl)cc4)sc3c2)ccn1,83.6%
2,CNC(=O)c1cc(Oc2ccc3nc(NC(=O)Nc4ccc(F)cc4F)sc3c2)ccn1,84.2%

# System: not listed separately
# Test: Antiproliferative activity against human OVCAR3 cells assessed as cell growth at 10^-5 M after 48 hrs by sulforhodamine B assay
# Type: functional
# Conditions: OVCAR-3, 48 h, read-out: Activity
row,Structure (SMILES),growth at 10 µM
1,CNC(=O)c1cc(Oc2ccc3nc(NC(=O)Nc4ccc(Cl)cc4)sc3c2)ccn1,48.8%
2,CNC(=O)c1cc(Oc2ccc3nc(NC(=O)Nc4ccc(F)cc4F)sc3c2)ccn1,74.7%

# System: not listed separately
# Test: Antiproliferative activity against human OVCAR5 cells assessed as cell growth at 10^-5 M after 48 hrs by sulforhodamine B assay
# Type: functional
# Conditions: OVCAR-5, 48 h, read-out: Activity
row,Structure (SMILES),growth at 10 µM
1,CNC(=O)c1cc(Oc2ccc3nc(NC(=O)Nc4ccc(Cl)cc4)sc3c2)ccn1,92.3%
2,CNC(=O)c1cc(Oc2ccc3nc(NC(=O)Nc4ccc(F)cc4F)sc3c2)ccn1,95.2%

# System: not listed separately
# Test: Antiproliferative activity against human NCI-ADR-RES cells assessed as cell growth at 10^-5 M after 48 hrs by sulforhodamine B assay
# Type: functional
# Conditions: read-out: Activity
row,Structure (SMILES),growth at 10 µM
1,CNC(=O)c1cc(Oc2ccc3nc(NC(=O)Nc4ccc(Cl)cc4)sc3c2)ccn1,83.6%
2,CNC(=O)c1cc(Oc2ccc3nc(NC(=O)Nc4ccc(F)cc4F)sc3c2)ccn1,45.5%

# System: not listed separately
# Test: Antiproliferative activity against human SKOV3 cells assessed as cell growth at 10^-5 M after 48 hrs by sulforhodamine B assay
# Type: functional
# Conditions: SK-OV-3, 48 h, read-out: Activity
row,Structure (SMILES),growth at 10 µM
1,CNC(=O)c1cc(Oc2ccc3nc(NC(=O)Nc4ccc(Cl)cc4)sc3c2)ccn1,82%
2,CNC(=O)c1cc(Oc2ccc3nc(NC(=O)Nc4ccc(F)cc4F)sc3c2)ccn1,76.3%

# System: 786-0
# Test: Antiproliferative activity against human 786-0 cells assessed as cell growth at 10^-5 M after 48 hrs by sulforhodamine B assay
# Type: functional
# Conditions: 786-0, 48 h, read-out: Activity
row,Structure (SMILES),growth at 10 µM
1,CNC(=O)c1cc(Oc2ccc3nc(NC(=O)Nc4ccc(Cl)cc4)sc3c2)ccn1,75.3%
2,CNC(=O)c1cc(Oc2ccc3nc(NC(=O)Nc4ccc(F)cc4F)sc3c2)ccn1,64%

# System: ACHN
# Test: Antiproliferative activity against human ACHN cells assessed as cell growth at 10^-5 M after 48 hrs by sulforhodamine B assay
# Type: functional
# Conditions: read-out: Activity
row,Structure (SMILES),growth at 10 µM
1,CNC(=O)c1cc(Oc2ccc3nc(NC(=O)Nc4ccc(Cl)cc4)sc3c2)ccn1,64.9%
2,CNC(=O)c1cc(Oc2ccc3nc(NC(=O)Nc4ccc(F)cc4F)sc3c2)ccn1,60.6%

# System: not listed separately
# Test: Antiproliferative activity against human RXF393 cells assessed as cell growth at 10^-5 M after 48 hrs by sulforhodamine B assay
# Type: functional
# Conditions: RXF 393, 48 h, read-out: Activity
row,Structure (SMILES),growth at 10 µM
1,CNC(=O)c1cc(Oc2ccc3nc(NC(=O)Nc4ccc(Cl)cc4)sc3c2)ccn1,50.8%
2,CNC(=O)c1cc(Oc2ccc3nc(NC(=O)Nc4ccc(F)cc4F)sc3c2)ccn1,42.3%

# System: SN12C
# Test: Antiproliferative activity against human SN12C cells assessed as cell growth at 10^-5 M after 48 hrs by sulforhodamine B assay
# Type: functional
# Conditions: read-out: Activity
row,Structure (SMILES),growth at 10 µM
1,CNC(=O)c1cc(Oc2ccc3nc(NC(=O)Nc4ccc(Cl)cc4)sc3c2)ccn1,62.4%
2,CNC(=O)c1cc(Oc2ccc3nc(NC(=O)Nc4ccc(F)cc4F)sc3c2)ccn1,69.2%

# System: not listed separately
# Test: Antiproliferative activity against human TK10 cells assessed as cell growth at 10^-5 M after 48 hrs by sulforhodamine B assay
# Type: functional
# Conditions: TK-10, 48 h, read-out: Activity
row,Structure (SMILES),growth at 10 µM
1,CNC(=O)c1cc(Oc2ccc3nc(NC(=O)Nc4ccc(Cl)cc4)sc3c2)ccn1,62.3%
2,CNC(=O)c1cc(Oc2ccc3nc(NC(=O)Nc4ccc(F)cc4F)sc3c2)ccn1,93.5%

# System: not listed separately
# Test: Antiproliferative activity against human PC3 cells assessed as cell growth at 10^-5 M after 48 hrs by sulforhodamine B assay
# Type: functional
# Conditions: PC-3, 48 h, read-out: Activity
row,Structure (SMILES),growth at 10 µM
1,CNC(=O)c1cc(Oc2ccc3nc(NC(=O)Nc4ccc(Cl)cc4)sc3c2)ccn1,66%
2,CNC(=O)c1cc(Oc2ccc3nc(NC(=O)Nc4ccc(F)cc4F)sc3c2)ccn1,65.9%

# System: MCF7
# Test: Antiproliferative activity against human MCF7 cells assessed as cell growth at 10^-5 M after 48 hrs by sulforhodamine B assay
# Type: functional
# Conditions: MCF7, 48 h, read-out: Activity
row,Structure (SMILES),growth at 10 µM
1,CNC(=O)c1cc(Oc2ccc3nc(NC(=O)Nc4ccc(Cl)cc4)sc3c2)ccn1,69.5%
2,CNC(=O)c1cc(Oc2ccc3nc(NC(=O)Nc4ccc(F)cc4F)sc3c2)ccn1,66.8%

# System: MDA-MB-231
# Test: Antiproliferative activity against human MDA-MB-231 cells assessed as cell growth at 10^-5 M after 48 hrs by sulforhodamine B assay
# Type: functional
# Conditions: MDA-MB-231, 48 h, read-out: Activity
row,Structure (SMILES),growth at 10 µM
1,CNC(=O)c1cc(Oc2ccc3nc(NC(=O)Nc4ccc(Cl)cc4)sc3c2)ccn1,34.4%
2,CNC(=O)c1cc(Oc2ccc3nc(NC(=O)Nc4ccc(F)cc4F)sc3c2)ccn1,47.6%
